Test results reported in patent US20240207163A1, “RETINOL DERIVATIVE COMPOSITION AND USE THEREOF” (Inertia Shanghai Biotechnology Co., Ltd., priority 2021, published 2024).
“And” between values parts separate entries of the source, which are not always exact repeats. Equal values may be shown once.

Tests used:
Format in all cases: cell-based
HFF-1 cells = assay: Cytotoxicity experiment (CCK-8 cell viability); conditions: 24 h, 5 μg/mL HPR, 9 μg/mL retinyl propionate, alone or in combination, individual replicates
Description: 2.1 Experimental content: an effect of 5 μg/mL of HPR and 9 μg/mL of retinyl propionate alone or in combination on the viability of HFF-1 cells.
2.2 Experimental method: the HFF-1 cells were seeded in a 96-well plate (3,000 cells/mL and 100 μL per well) and administrated in a 5 μg/mL HPR group, a 9 μg/mL retinyl propionate group, and a 5 μg/mL HPR+9 μg/mL retinyl propionate group. A blank control was set at the same time. The cell viability after 24 h of the administration treatment was detected using a CCK-8 kit.
2.3 Experimental results: data was input by the Excel, subjected to statistical processing by a Prism (Version 7) software package, and expressed as meantstandard error. Each data was subjected to a one-way analysis of variance and p<0.05 was considered to be statistically different.

Col-IV mRNA = assay: Various anti-aging related mRNA expression experiment (qPCR), Col-IV; conditions: HFF-1 cells, 5 μg/mL HPR, 9 μg/mL retinyl propionate, alone or in combination, individual replicates
Description: (§1) RNA extraction: a cell sample was taken, a supernatant was removed, 1 mL of a TRIZON reagent was added into each well of a 6-well plate, the cells were stood, cracked, and transferred to a 1.5-mL EP tube, 0.2 mL of chloroform was added, and the mixture was shaken, uniformly mixed, stood on ice, and centrifuged at 12,000 rpm/min at 4° C. for 15 min; about 400 μL of an obtained supernatant was taken, isopropanol with the same volume was added, the mixture was lightly shaken, stood on ice at 4° C., and centrifuged at 12,000 rpm/min for 10 min; an obtained supernatant was removed, 1 mL of 75% ethanol was added into an obtained precipitate, an EP tube was shaken to float the precipitate to achieve a washing effect, the obtained product was centrifuged at 7,500 rpm/min at 4° C. for 10 min; an obtained supernatant was removed, a part of ethanol was left, the product was centrifuged at 7,500 rpm/min at 4° C. for 5 min, and residual ethanol was removed from the inner wall of the tube; and an obtained supernatant was removed, the liquid was aspirated, and a certain amount of RNA-free water was added for resuspension and dissolution. 2 μL of the product was analyzed on a SpectraMax iD3 multifunctional microplate reader for detecting the RNA concentration and A260/A280 value.
(§2) cDNA synthesis: the mRNA was subjected to reverse transcription into cDNA by using a HiFiScript cDNA synthesis kit.
(§3) Fluorescence quantification: the expression of the Elastin mRNA in the cell sample was detected by mixing an UltraSYBR Mixture premixed solution and the cDNA, and loading the mixture into a machine.
(§4) 3.1 Experimental content: an effect of 5 μg/mL of HPR and 9 μg/mL of retinyl propionate alone or in combination on expressions of collagen-related mRNAs in HFF-1 cells.
(§5) 3.2 Experimental method: the HFF-1 cells were seeded in a 96-well plate (3,000 cells/mL and […]) and administrated in a 5 μg/mL HPR group, a 9 μg/mL retinyl propionate group, and a 5 μg/mL HPR+9 μg/mL retinyl propionate group. A blank control was set at the same time. Total RNA of the cells was extracted at 24 h, 48 h, and 72 h and the expressions of the collagen-related mRNAs were detected by qPCR. (The specific operation steps referred to section 1.2)
(§6) 3.3 Experimental results: data was input by the Excel, subjected to statistical processing by a Prism (Version 7) software package, and expressed as meantstandard error. Each data was subjected to a one-way analysis of variance and p<0.05 was considered to be statistically different.

CRBPI mRNA = assay: Various anti-aging related mRNA expression experiment (qPCR), CRBPI; conditions: HFF-1 cells, 5 μg/mL HPR, 9 μg/mL retinyl propionate, alone or in combination, individual replicates
Description: as §1, §2, §3, §4, §5, §6

RARB mRNA = assay: Various anti-aging related mRNA expression experiment (qPCR), RARB; conditions: HFF-1 cells, 5 μg/mL HPR, 9 μg/mL retinyl propionate, alone or in combination, individual replicates
Description: as §1, §2, §3, §4, §5, §6

Elastin mRNA = assay: Various anti-aging related mRNA expression experiment (qPCR), Elastin; conditions: HFF-1 cells, 5 μg/mL HPR, 9 μg/mL retinyl propionate, alone or in combination, individual replicates
Description: as §1, §2, §3, §4, §5, §6

Row | Structure (SMILES) | viability of HFF-1 cells (blank control 100) (HFF-1 cells) | Col IV mRNA expression (blank control 1) (Col-IV mRNA; after 24 h) | Col IV mRNA expression (blank control 1) (Col-IV mRNA; after 48 h) | Col IV mRNA expression (blank control 1) (Col-IV mRNA; after 72 h) | CRBPI mRNA expression (blank control 1) (CRBPI mRNA; after 24 h) | CRBPI mRNA expression (blank control 1) (CRBPI mRNA; after 48 h) | CRBPI mRNA expression (blank control 1) (CRBPI mRNA; after 72 h) | RARB mRNA expression (blank control 1) (RARB mRNA; after 24 h) | RARB mRNA expression (blank control 1) (RARB mRNA; after 48 h) | RARB mRNA expression (blank control 1) (RARB mRNA; after 72 h) | Elastin mRNA expression (blank control 1) (Elastin mRNA; after 24 h) | Elastin mRNA expression (blank control 1) (Elastin mRNA; after 48 h) | Elastin mRNA expression (blank control 1) (Elastin mRNA; after 72 h)
1 | CC1=C(/C=C/C(C)=C/C=C/C(C)=C/C(=O)OCC(=O)C(C)(C)C)C(C)(C)CCC1 [HPR, hydroxypinacolone retinoate] | 104.9 and 101.4 and 100.3 | 1.357 and 1.014 and 1.223 | 1.474 and 1.094 and 1.945 | 1.165 and 1.265 and 0.9395 | 3.223 and 1.094 and 1.597 | 1.094 and 1.488 and 1.58 | 4.017 and 1.79 and 3.295 | 1.079 and 3.732 and 5.063 | 1.659 and 1.189 and 3.605 | 2.395 and 1.042 and 4.925 | 1.778 and 14.52 and 1.029 | 2.928 and 2.809 and 3.317 | 1.963 and 3.52 and 4.112
2 | CCC(=O)OC/C=C(C)/C=C/C=C(C)/C=C/C1=C(C)CCCC1(C)C [retinyl propionate] | 100.2 and 100.8 and 95.66 | 1 and 1.357 and 1.079 | 1.385 and 1.485 and 1.117 | 1.625 and 1.189 and 0.9794 | 1.58 and 1.866 and 1.042 | 1.275 and 1.647 (2×) | 3.272 and 1.087 and 1.072 | 1.301 and 1.214 and 2.828 | 1.301 and 1.602 and 1.079 | 1.803 and 1.165 and 1.301 | 1.778 and 16.11 and 1.157 | 1.866 and 2.77 and 3.01 | 5.736 and 6.727 and 1.275
